{
  "source": "patent US6136848A",
  "about": "“Flavone derivative and medicine comprising the same” (Kowa Co., Ltd., priority 1996, dated 2000)",
  "key": {"Leucotriene D4 Receptor": {"target": "T1, Leucotriene D4 Receptor (Cavia porcellus, UniProt Q2NNR5)", "T1 construct": "guinea pig pulmomembranous protein; from tissue; host or cells: guinea pig lung membranes", "T1 sequence (Q2NNR5 1-340)": "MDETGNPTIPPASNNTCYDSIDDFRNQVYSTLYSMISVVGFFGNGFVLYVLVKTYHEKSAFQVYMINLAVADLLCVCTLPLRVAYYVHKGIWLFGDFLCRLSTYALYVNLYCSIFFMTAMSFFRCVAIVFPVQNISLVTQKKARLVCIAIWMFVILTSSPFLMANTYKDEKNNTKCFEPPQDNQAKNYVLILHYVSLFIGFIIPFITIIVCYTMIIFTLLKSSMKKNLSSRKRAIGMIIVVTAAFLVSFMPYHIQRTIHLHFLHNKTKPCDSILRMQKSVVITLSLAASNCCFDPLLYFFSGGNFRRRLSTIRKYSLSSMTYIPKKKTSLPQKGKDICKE", "experiment": "Leucotriene D4 Receptor Binding Inhibition Test", "set-up": "species or system guinea pig", "method": "An ice-cooled tris hydrochloride/sodium chloride buffer (10 mM/100 mM, pH 7.5) was added to terminate the reaction, followed by immediate filtration through a Wattman CF/C filter. The filter was washed twice with 20 ml aliquots of the ice-cooled buffer. The radioactivity of the residue was measured by a liquid scintillation counter. […] Using the Cheng-Prusoff formula, a dissociation constant (KD) was calculated from the IC50. […] Incidentally, the values in Table 2 indicate dissociation constants KD (mol)."}, "[1]": {"test_system": "isolated guinea pig ileum", "experiment": "Antileucotriene D4 Action (In Vitro Test): leukotriene D4 contractile response of isolated guinea pig ileum", "type": "cell-based", "details": "Cavia porcellus, 0.5 h; read-out: Anti-LT action (IC50)", "method": "Antileucotriene D4 Action (In Vitro Test)\nAn isolated guinea pig ileum was cut into about 2 cm lengths. Each ileum piece was suspended in a 20-ml container filled with the Krebs buffer. […] The Krebs buffer was controlled at 37° C., through which a mixed gas (95%O2 -5%CO2) was bubbled. […] After the ileum piece was washed several times with the buffer, a test compound (will be identified by its example number; this will apply likewise hereinafter) of a predetermined specific concentration was added."}, "airway": {"test_system": "airway", "details": "Larsen & Acosta 1993, cited from earlier work"}, "[2]": {"details": "0.2 nM [3H]leukotriene D4, guinea pig pulmomembranous protein, pH 7.5, 30 min, calculated from IC50 by Cheng-Prusoff formula, read-out: LTD receptor, dissociation constant KD"}, "[3]": {"details": "read-out: LTD receptor, dissociation constant KD"}},
  "note": "Like-named read-outs stand apart in the source and are kept apart here.",
  "data": [
    {"compound": "O=C(O)c1cc(F)cc2c(=O)cc(-c3cccc(/C=C/c4ccc5ccccc5n4)c3)oc12", "note": "[Example 40, 8-carboxy-6-fluoro-3'-[2-(2-quinolinyl)ethenyl]flavone]", "values": [
      {"measurement": "Kd", "setting": "Leucotriene D4 Receptor; [2]", "value": 127, "unit": "nM"}
    ]},
    {"compound": "Cc1cc(C(=O)O)c2oc(-c3cccc(/C=C/c4ccc5ccccc5n4)c3)cc(=O)c2c1", "note": "[Example 43, 8-carboxy-6-methyl-3'-[2-(2-quinolinyl)ethenyl]flavone]", "values": [
      {"measurement": "IC50", "setting": "[1]", "value": 28, "unit": "nM"}
    ]},
    {"compound": "O=C(O)c1cccc2c(=O)cc(-c3cccc(/C=C/c4ccc5ccccc5n4)c3)oc12", "note": "[Example 39, 8-carboxy-3'-[2-(2-quinolinyl)ethenyl]flavone]", "values": [
      {"measurement": "Kd", "setting": "Leucotriene D4 Receptor; [3]", "value": 17.3, "unit": "nM"}
    ]},
    {"compound": "CCCCC/C=C\\C\\C=C/C=C/C=C/[C@@H](SC[C@H](N)C(=O)O)[C@@H](O)CCCC(=O)O", "note": "[LTE4]", "values": [
      {"measurement": "activity compared with the other leucotrienes", "setting": "airway", "value": "lower activities compared with the other leucotrienes"},
      {"measurement": "duration of induced airway constriction", "setting": "airway", "value": "long lasting"}
    ]},
    {"compound": "O=C(O)c1cccc2c(=O)c(O)c(-c3ccc(OCc4ccc5ccccc5n4)cc3)oc12", "note": "[Example 29, 8-carboxy-3-hydroxy-4'-[(2-quinolinyl)methoxy]flavone]", "values": [
      {"measurement": "Kd", "setting": "Leucotriene D4 Receptor; [3]", "value": 805, "unit": "nM"}
    ]},
    {"compound": "O=c1cc(-c2cccc(/C=C/c3ccc4ccccc4n3)c2)oc2ccc(-c3nnn[nH]3)cc12", "note": "[Example 37, 3'-[2-(2-quinolinyl)ethenyl]-6-(5-tetrazolyl)flavone]", "values": [
      {"measurement": "Kd", "setting": "Leucotriene D4 Receptor; [2]", "value": 307, "unit": "nM"}
    ]},
    {"compound": "O=C(O)c1cc(Br)cc2c(=O)cc(-c3cccc(OCc4ccc5ccccc5c4)c3)oc12", "note": "[Example 26, 6-bromo-8-carboxy-3'-(2-naphthylmethoxy)flavone]", "values": [
      {"measurement": "Kd", "setting": "Leucotriene D4 Receptor; [2]", "value": 1130, "unit": "nM"}
    ]},
    {"compound": "CCOC(=O)c1cc(Br)cc2c(=O)cc(-c3cccc(OCc4ccc5ccc(Cl)cc5n4)c3)oc12", "note": "[Example 14, 6-bromo-8-ethoxycarbonyl-3'-[2-(7-chloroquinolinyl)methoxy]flavone]", "values": [
      {"measurement": "Kd", "setting": "Leucotriene D4 Receptor; [3]", "value": 11.1, "unit": "nM"}
    ]},
    {"compound": "CCOC(=O)c1cc(Br)cc2c(=O)cc(-c3cccc(OCc4nc5ccccc5s4)c3)oc12", "note": "[Example 18, 6-bromo-8-ethoxycarbonyl-3'-[(2-benzothiazolinyl)methoxy]flavone]", "values": [
      {"measurement": "Kd", "setting": "Leucotriene D4 Receptor; [3]", "value": 79.4, "unit": "nM"}
    ]},
    {"compound": "O=C(O)c1cc(Cl)cc2c(=O)cc(-c3cccc(/C=C/c4ccc5ccccc5n4)c3)oc12", "note": "[Example 41, 8-carboxy-6-chloro-3'-[2-(2-quinolinyl)ethenyl]flavone]", "values": [
      {"measurement": "IC50", "setting": "[1]", "value": 15, "unit": "nM"}
    ]},
    {"compound": "O=c1cc(-c2cccc(/C=C/c3ccc4ccccc4n3)c2)oc2c(-c3nn[nH]n3)cc(Cl)cc12", "note": "[Example 45, 6-chloro-3'-[2-(2-quinolinyl)ethenyl]-8-(5-tetrazolyl)flavone]", "values": [
      {"measurement": "Kd", "setting": "Leucotriene D4 Receptor; [3]", "value": 11, "unit": "nM"}
    ]},
    {"compound": "CCCCC/C=C\\C\\C=C/C=C/C=C/[C@@H](SC[C@H](NC(=O)CC[C@H](N)C(=O)O)C(=O)NCC(=O)O)[C@@H](O)CCCC(=O)O", "note": "[LTC4]", "values": [
      {"measurement": "effect on airway constriction relative to histamine", "setting": "airway; inhaled, vs histamine", "value": "1,000 times"}
    ]},
    {"compound": "O=C(O)c1cc(Br)cc2c(=O)cc(-c3cccc(OCc4ccc5ccccc5n4)c3)oc12", "note": "[Example 23, 6-bromo-8-carboxy-3'-(2-guinolinylmethoxy)flavone]", "values": [
      {"measurement": "IC50", "setting": "[1]", "value": 61, "unit": "nM"}
    ]},
    {"compound": "CCOC(=O)c1cc(Br)cc2c(=O)cc(-c3cccc(OCc4nc5ccccc5n4C)c3)oc12", "note": "[Example 17, 6-bromo-8-ethoxycarbonyl-3'-[2-(1-methylbenzimidazolyl)methoxy]flavone]", "values": [
      {"measurement": "Kd", "setting": "Leucotriene D4 Receptor; [3]", "value": 210, "unit": "nM"}
    ]},
    {"compound": "[^3 H]leukotriene D4 [reference compound]", "values": [
      {"measurement": "Kd", "setting": "Leucotriene D4 Receptor; [3H]leukotriene D4, guinea pig pulmomembranous protein, read-out: dissociation constant (KD) of radioligand", "value": 0.216, "unit": "nM"},
      {"measurement": "Hill plot slope", "setting": "Leucotriene D4 Receptor; [3H]leukotriene D4 binding", "value": 0.99}
    ]},
    {"compound": "Cn1c(COc2cccc(-c3cc(=O)c4cc(Br)cc(C(=O)O)c4o3)c2)nc2ccccc21", "note": "[Example 28, 6-bromo-8-carboxy-3'-[2-(1-methylbenzimidazolyl)methoxy]flavone]", "values": [
      {"measurement": "Kd", "setting": "Leucotriene D4 Receptor; [2]", "value": 210, "unit": "nM"}
    ]},
    {"compound": "O=C(O)c1cccc2c(=O)c(OCCN3C(=O)c4ccccc4C3=O)c(-c3ccc(OCc4ccc5ccccc5n4)cc3)oc12", "note": "[Example 31, 8-carboxy-3-(2-phthalimido)ethoxy-4'-[(2-quinolinyl)methoxy]flavone]", "values": [
      {"measurement": "Kd", "setting": "Leucotriene D4 Receptor; [3]", "value": 9160, "unit": "nM"}
    ]},
    {"compound": "O=C(O)c1cc(Br)cc2c(=O)cc(-c3cccc(/C=C/c4ccc5ccccc5n4)c3)oc12", "note": "[Example 42, 8-carboxy-6-bromo-3'-[2-(2-quinolinyl)ethenyl]flavone]", "values": [
      {"measurement": "IC50", "setting": "[1]", "value": 100, "unit": "nM"}
    ]},
    {"compound": "O=C(O)c1cc(Br)cc2c(=O)cc(-c3cccc(OCc4nc5ccccc5s4)c3)oc12", "note": "[Example 27, 6-bromo-8-carboxy-3'-(2-benzothiazolylmethoxy)flavone]", "values": [
      {"measurement": "Kd", "setting": "Leucotriene D4 Receptor; [2]", "value": 79.4, "unit": "nM"}
    ]}
  ]
}
